According to ChEMBL document CHEMBL4665679, “Ocular Disease Therapeutics: Design and Delivery of Drugs for Diseases of the Eye” (J Med Chem, 2020):
pIC50, pKd: −log10 of the molar value. Values after ≈ are worked out from the molar mass of the structure shown.

What was measured:
[1] = Equilibrium solubility in pH 6.8 potassium phosphate buffer incubated for 16 hrs by shake flask method; assay type: physicochemical
Complement C5 = Complement C5 (Homo sapiens, UniProt P01031); test: Inhibition of C5 complement protein in 2% human serum incubated for 15 mins; assay type: cell-free
Sequence of Complement C5 (P01031 19-673 limits assumed): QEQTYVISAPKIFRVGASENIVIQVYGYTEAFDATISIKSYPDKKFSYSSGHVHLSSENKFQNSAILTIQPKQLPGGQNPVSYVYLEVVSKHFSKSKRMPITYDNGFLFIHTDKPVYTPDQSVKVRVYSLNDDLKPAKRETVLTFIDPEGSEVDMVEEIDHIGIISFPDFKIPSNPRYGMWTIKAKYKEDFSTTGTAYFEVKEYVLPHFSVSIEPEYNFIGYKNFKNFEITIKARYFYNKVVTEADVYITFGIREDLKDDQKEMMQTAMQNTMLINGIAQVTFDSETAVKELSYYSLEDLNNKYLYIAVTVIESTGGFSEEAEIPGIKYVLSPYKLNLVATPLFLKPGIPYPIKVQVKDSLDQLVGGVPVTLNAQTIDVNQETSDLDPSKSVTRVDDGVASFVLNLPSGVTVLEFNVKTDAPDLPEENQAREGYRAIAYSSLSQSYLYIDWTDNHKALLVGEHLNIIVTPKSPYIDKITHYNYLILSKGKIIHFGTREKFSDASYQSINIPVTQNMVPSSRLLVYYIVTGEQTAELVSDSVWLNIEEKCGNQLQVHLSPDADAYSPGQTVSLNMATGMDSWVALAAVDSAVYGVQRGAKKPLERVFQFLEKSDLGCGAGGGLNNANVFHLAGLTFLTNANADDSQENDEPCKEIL
Sequence of Complement C5 (P01031 678-1676 limits assumed): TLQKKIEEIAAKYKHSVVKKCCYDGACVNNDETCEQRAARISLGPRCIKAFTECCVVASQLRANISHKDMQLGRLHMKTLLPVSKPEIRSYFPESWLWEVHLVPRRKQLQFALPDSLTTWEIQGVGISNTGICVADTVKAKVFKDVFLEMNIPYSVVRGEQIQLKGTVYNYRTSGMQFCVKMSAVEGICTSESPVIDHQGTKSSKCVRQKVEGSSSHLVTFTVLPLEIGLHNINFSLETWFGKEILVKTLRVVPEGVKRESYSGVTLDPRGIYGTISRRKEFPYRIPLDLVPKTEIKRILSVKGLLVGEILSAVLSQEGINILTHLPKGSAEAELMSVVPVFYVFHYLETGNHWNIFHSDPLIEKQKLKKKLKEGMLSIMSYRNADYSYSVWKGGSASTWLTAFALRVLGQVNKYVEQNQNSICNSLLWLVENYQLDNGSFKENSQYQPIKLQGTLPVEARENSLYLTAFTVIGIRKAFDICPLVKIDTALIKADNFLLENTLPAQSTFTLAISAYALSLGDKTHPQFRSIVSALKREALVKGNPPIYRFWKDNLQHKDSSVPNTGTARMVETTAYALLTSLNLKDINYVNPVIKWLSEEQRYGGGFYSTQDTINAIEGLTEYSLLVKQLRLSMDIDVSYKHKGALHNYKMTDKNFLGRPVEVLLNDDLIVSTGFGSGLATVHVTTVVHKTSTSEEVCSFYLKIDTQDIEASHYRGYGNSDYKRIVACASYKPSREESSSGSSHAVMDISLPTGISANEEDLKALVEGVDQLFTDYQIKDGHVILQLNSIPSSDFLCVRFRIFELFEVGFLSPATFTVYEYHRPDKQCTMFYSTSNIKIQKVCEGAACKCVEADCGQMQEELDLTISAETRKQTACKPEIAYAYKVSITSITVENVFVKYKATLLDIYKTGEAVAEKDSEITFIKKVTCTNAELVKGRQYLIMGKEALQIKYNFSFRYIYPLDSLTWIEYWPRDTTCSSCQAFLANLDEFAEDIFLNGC

[2] = Reduction of intraocular pressure in human at 0.1% administered topically to the eye and measured at 4 hr post-instillation during phase 1 clinical trial by tonometry; assay type: functional
[3] = Reduction of intraocular pressure in human at 0.4%, OU administered twice daily for 8 weeks and measured every 4 weeks at 8 hrs post instillation during phase 2 clinical trial by tonometry; assay type: functional
[4] = Reduction of intraocular pressure in human at 0.4%, OU administered twice daily for 8 weeks cotreated with timolol and measured every 2 weeks at 2 hrs post-instillation by tonometry; assay type: functional
[5] = Reduction of intraocular pressure in human at 0.4%, OU administered twice daily for 52 weeks and measured every 2 weeks for first month and then every 4 weeks by tonometry; assay type: functional
[6] = Reduction of intraocular pressure in human at 0.1%, OU administered twice daily for 8 weeks and measured every 4 weeks at 8 hrs post instillation during phase 2 clinical trial by tonometry; assay type: functional
[7] = Reduction of intraocular pressure in human at 0.2%, OU administered twice daily for 8 weeks and measured every 4 weeks at 8 hrs post instillation during phase 2 clinical trial by tonometry; assay type: functional
[8] = Reduction of intraocular pressure in human at 0.4%, OU administered twice daily for 52 weeks and measured every 2 weeks for first month and then every 4 weeks at 2 hr post-instillation by tonometry; assay type: functional
[9] = Reduction of intraocular pressure in human at 0.4%, OU administered twice daily for 8 weeks cotreated with timolol and measured every 2 weeks by tonometry; assay type: functional
[10] = Reduction of intraocular pressure in human at 0.4%, OU administered twice daily for 8 weeks cotreated-with-latanoprost and measured every 2 weeks at 2 hrs post-instillation by tonometry; assay type: functional
Complement factor D [11] = biological target: T1, Complement factor D (Homo sapiens, UniProt P00746); test: Inhibition of CFD in 50% human whole blood assessed as reduction in alternate complement pathway-mediated MAC formation pre-incubated for 15 mins followed by zymosan suspension addition and measured after 40 mins by ELISA; assay type: tissue-based
T1 sequence (P00746 whole entry): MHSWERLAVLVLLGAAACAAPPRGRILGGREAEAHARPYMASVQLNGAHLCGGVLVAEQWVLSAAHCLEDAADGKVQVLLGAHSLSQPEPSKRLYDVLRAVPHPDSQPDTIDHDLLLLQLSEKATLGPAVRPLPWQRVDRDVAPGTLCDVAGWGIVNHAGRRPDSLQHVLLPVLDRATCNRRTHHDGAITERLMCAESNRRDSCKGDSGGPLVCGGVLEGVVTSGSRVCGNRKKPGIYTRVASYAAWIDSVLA

[12] = Solubility of compound by NMR analysis; assay type: physicochemical
[13] = Inhibition of N-terminal His-tagged human KLK7 (37 to 253 residues) Y180R mutant expressed in Escherichia coli BL21(DE3) using Ac-Glu-Phe-Lys-Pro-Ile-Leu-Trp-Arg-Leu-Gly-Cys(PT14)-Glu-NH2 as substrate preincubated for 1 hr followed by substrate addition by fluorescence-lifetime assay
Complement factor D [14] = biological target: T1, Complement factor D; test: Binding affinity to human CFD at 100 uM by WaterLOGSY NMR analysis
[15] = Half life in human cornea by HPLC analysis; assay type: ADME, tissue-based
[16] = Half life in pig cornea by HPLC analysis; assay type: ADME, tissue-based, Sus scrofa; settings: in vivo
[17] = Half life in cynomolgus monkey cornea by HPLC analysis; assay type: ADME, tissue-based, Macaca fascicularis; settings: in vivo
[18] = Half life in Dutch Belted rabbit cornea by HPLC analysis; assay type: ADME, tissue-based, Oryctolagus cuniculus; settings: in vivo
[19] = Half life in Beagle dog cornea by HPLC analysis; assay type: ADME, tissue-based, Canis lupus familiaris; settings: in vivo
Complement factor D [20] = biological target: T1, Complement factor D; test: Inhibition of recombinant human CFD catalytic domain (G24 to A253 residues) expressed in Escherichia coli (Rosetta) using Z-Lys-thiobenzyl and 2,4-dinitrobenzenesulfonyl-2,7-[…]-fluorecein as substrate preincubated for 1 hr followed by substrate addition by spectrofluorimetric method
Complement factor D [21] = biological target: T1, Complement factor D; test: Inhibition of CFD in human RBC model of anti-CD55/anti-CD59-induced paroxysmal nocturnal hemoglobinuria assessed as reduction in complement fragment C3 deposition by FACS analysis; assay type: tissue-based
[22] = biological target: T2, Nitric oxide synthase, inducible (Mus musculus, UniProt P29477); test: Inhibition of LPS/IFN-gamma induced NO-dependent iNOS activity in mouse RAW 264.7 cells incubated for 16 hrs by Griess reagent based assay; assay type: cell-based, RAW264.7
T2 sequence (P29477 whole entry): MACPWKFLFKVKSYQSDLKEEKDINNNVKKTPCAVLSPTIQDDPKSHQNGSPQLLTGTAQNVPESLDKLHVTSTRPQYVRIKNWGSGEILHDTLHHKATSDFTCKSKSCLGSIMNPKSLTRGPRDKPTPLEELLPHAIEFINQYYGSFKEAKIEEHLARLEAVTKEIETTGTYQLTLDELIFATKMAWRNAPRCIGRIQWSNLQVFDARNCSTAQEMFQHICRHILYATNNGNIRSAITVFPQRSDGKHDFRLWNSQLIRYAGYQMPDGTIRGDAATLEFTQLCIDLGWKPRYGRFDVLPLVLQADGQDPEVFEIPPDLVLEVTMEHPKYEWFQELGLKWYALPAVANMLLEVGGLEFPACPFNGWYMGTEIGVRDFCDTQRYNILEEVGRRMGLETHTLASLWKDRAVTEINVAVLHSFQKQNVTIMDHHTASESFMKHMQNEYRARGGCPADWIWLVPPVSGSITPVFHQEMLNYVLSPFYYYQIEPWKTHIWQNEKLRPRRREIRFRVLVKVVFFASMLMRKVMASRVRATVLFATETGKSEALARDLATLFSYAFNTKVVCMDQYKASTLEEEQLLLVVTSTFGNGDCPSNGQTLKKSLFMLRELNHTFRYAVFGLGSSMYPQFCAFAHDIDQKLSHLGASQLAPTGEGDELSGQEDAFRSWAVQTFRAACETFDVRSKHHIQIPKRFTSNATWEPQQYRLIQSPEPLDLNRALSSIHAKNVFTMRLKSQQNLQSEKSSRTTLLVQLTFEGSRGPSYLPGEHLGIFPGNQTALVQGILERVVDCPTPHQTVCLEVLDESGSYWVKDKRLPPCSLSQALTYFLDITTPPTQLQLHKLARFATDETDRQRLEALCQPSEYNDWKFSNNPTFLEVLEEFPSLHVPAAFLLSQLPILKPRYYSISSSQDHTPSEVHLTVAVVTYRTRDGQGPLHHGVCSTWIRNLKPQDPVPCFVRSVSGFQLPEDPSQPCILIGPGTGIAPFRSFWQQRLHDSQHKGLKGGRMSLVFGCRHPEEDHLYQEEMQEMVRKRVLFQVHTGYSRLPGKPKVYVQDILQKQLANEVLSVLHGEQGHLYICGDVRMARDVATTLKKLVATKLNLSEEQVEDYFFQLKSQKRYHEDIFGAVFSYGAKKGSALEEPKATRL

[23] = Reduction of intraocular pressure in human at 0.024%, OU administered once daily and measured at 12 pm time point after 2 weeks by tonometry; assay type: functional
[24] = Reduction of intraocular pressure in human at 0.024%, OU administered once daily and measured at 4 pm time point after 3 months by tonometry; assay type: functional; settings: 2190 h
[25] = Reduction of intraocular pressure in human at 0.024% administered topically to eye once daily and measured after 14 day during phase2 clinical trial by tonometry; assay type: functional
[26] = Reduction of intraocular pressure in human at 0.024%, OU administered once daily and measured at 4 pm time point after 6 weeks by tonometry; assay type: functional
[27] = Reduction of intraocular pressure in human at 0.024% administered topically to eye once daily for 4 weeks and measured for 8 hrs during nocturnal/sleep period by tonometry; assay type: functional
[28] = Reduction of intraocular pressure in human at 0.024%, OU administered once daily and measured at 8 am time point after 2 weeks by tonometry; assay type: functional
[29] = Reduction of intraocular pressure in human at 0.024%, OU administered once daily and measured at 4 pm time point after 2 weeks by tonometry; assay type: functional
[30] = Reduction of intraocular pressure in human at 0.024%, OU administered once daily and measured at 1 year by tonometry; assay type: functional; settings: 8760 h
[31] = Reduction of intraocular pressure in human at 0.024%, OU administered once daily and measured at 8 am time point after 6 weeks by tonometry; assay type: functional
[32] = Reduction of intraocular pressure in human at 0.024%, OU administered once daily and measured at 4 weeks by tonometry; assay type: functional
[33] = Reduction of intraocular pressure in human at 0.024% administered topically to eye once daily and measured after 28 day during phase2 clinical trial by tonometry; assay type: functional
[34] = Reduction of intraocular pressure in human at 0.024% administered topically to eye once daily and measured after 7 day during phase2 clinical trial by tonometry; assay type: functional
[35] = Reduction of intraocular pressure in human at 0.024%, OU administered once daily and measured at 12 pm time point after 3 months by tonometry; assay type: functional; settings: 2190 h
[36] = Reduction of intraocular pressure in human at 0.024%, OU administered to fellow-eye once daily for 14 days and measured for 24 hrs on day 14 by tonometry; assay type: functional; settings: time 14 day
[37] = Reduction of intraocular pressure in human at 0.024% administered topically to eye once daily for 4 weeks and measured for 8 hrs during diurnal/wake period by tonometry; assay type: functional
[38] = Reduction of intraocular pressure in human at 0.024%, OU administered once daily for 14 days and measured for 24 hrs on day 14 by tonometry; assay type: functional; settings: time 14 day
[39] = Reduction of intraocular pressure in human at 0.024%, OU administered once daily and measured at 12 pm time point after 6 weeks by tonometry; assay type: functional
[40] = Reduction of intraocular pressure in human at 0.024%, OU administered once daily and measured at 8 am time point after 3 months by tonometry; assay type: functional; settings: 2190 h
Rattus norvegicus [41] = test: Neuroprotective activity in Wistar rat model of streptozotocin-induced diabetic retinopathy assessed as decrease in retinal ganglion cells at 1 mg/kg, po dosed until 2 months starting 7 days prior to streptozotocin injection (reference value: 44%); assay type: functional; parameters: scale not given: the % may be the effect or the level left; settings: 1460 h
Rattus norvegicus [42] = test: Neuroprotective activity in Wistar rat model of streptozotocin-induced diabetic retinopathy assessed as decrease in retinal ganglion cells at 5 mg/kg, po dosed until 2 months starting 7 days prior to streptozotocin injection (reference value: 44%); assay type: functional; parameters: scale not given: the % may be the effect or the level left; settings: 1460 h

## CCCCCCOc1cc(NC(=O)N[C@@H](C)c2ccccc2)ccc1OC
[1]
  solubility thermodynamic at 16 h: < 4 µM
Complement C5
  pIC50: 6.68

## COc1ccc(NC(=O)N[C@@H](C)c2ccccc2)cc1OCCCC(C)C
[1]
  solubility thermodynamic at 16 h: < 4 µM
Complement C5
  pIC50: 6.36

## CC(N)c1ccc(C(=O)Nc2ccnc3[nH]ccc23)cc1 (configuration not stated)
[2]
  Activity: 3 mmHg

## C[C@H]1CNCCCN1S(=O)(=O)c1cccc2cncc(F)c12
[3]
  Activity: -3.1 mmHg
[4]
  Activity: 1.6 mmHg
[5]
  Activity: -2.6 mmHg
[6]
  Activity: -3.2 mmHg
[7]
  Activity: -2.7 mmHg
[8]
  Activity: -3.7 mmHg
[9]
  Activity: 0.9 mmHg
[10]
  Activity: 1.4 mmHg

## NC(=O)c1nn(CC(=O)N2[C@@H]3C[C@@H]3C[C@H]2C(=O)Nc2cccc(Br)n2)c2ncccc12
Complement factor D [11]
  pIC50: 7.30

## NC(=O)c1cc2cc(OCc3cccc(C(=O)O)c3)ccc2[nH]1
[12]
  solubility: 2000 µM (≈ 621 µg/mL)

## COC(=O)c1ccccc1CNC(=O)N1CCC[C@H]1C(=O)Nc1cccc(OC(F)(F)F)c1
[13]
  pIC50: 5.05

## NC(=O)c1cc2cc(OCc3ccccc3)ccc2[nH]1
Complement factor D [14]
  pKd: < 4.52
[12]
  solubility: 30 µM (≈ 7.99 µg/mL)

## Cc1ccc(C(=O)OCc2ccc([C@@H](CN)C(=O)Nc3ccc4cnccc4c3)cc2)c(C)c1
[15]
  t1/2: 2.92 h
[16]
  t1/2: 2.6 h
[17]
  t1/2: 1.82 h
[18]
  t1/2: 2.33 h
[19]
  t1/2: 1.63 h

## COc1ccc(CCNC(=O)[C@@H]2CCCN2C(=O)NCc2cccc3ccccc23)cc1
[13]
  pIC50: 6.15
Complement factor D [20]
  pIC50: < 4.52

## C[C@H](NC(=O)[C@@H]1C[C@H]2C[C@H]2N1C(=O)Cn1nc(C(N)=O)c2cccnc21)c1cccc(Cl)c1F
Complement factor D [21]
  pIC50: 7.15
Complement factor D [11]
  pIC50: 6.85

## COc1cc(C(=O)O)c(NC(=O)N[C@@H](C)c2ccccc2)cc1OCCCC(C)C
[1]
  solubility thermodynamic at 16 h: 728 µM (≈ 302 µg/mL)
Complement C5
  pIC50: 6.21

## O=C(CCC/C=C\C[C@@H]1[C@@H](CC[C@@H](O)CCc2ccccc2)[C@H](O)C[C@@H]1O)OC(CO[N+](=O)[O-])CO[N+](=O)[O-]
[22]
  pIC50: 4.26

## COc1ccc(NC(=O)N[C@@H](C)c2ccccc2OC)cc1OCCCC(C)C
[1]
  solubility thermodynamic at 16 h: ≤ 4 µM
Complement C5
  pIC50: ≥ 8.30

## O=C(CCC/C=C\C[C@@H]1[C@@H](CC[C@H](O)CCc2ccccc2)[C@H](O)C[C@@H]1O)OCCCCO[N+](=O)[O-]
[23]
  Activity: 0.8 mmHg
[24]
  Activity: 1.3 mmHg
[25]
  Activity: 8.9 mmHg
[26]
  Activity: 1 mmHg
[27]
  Activity: 2.3 mmHg
[28]
  Activity: 0.4 mmHg
[29]
  Activity: 0.7 mmHg
[30]
  Activity: 5.3 mmHg
[31]
  Activity: 0.9 mmHg
[32]
  Activity: 4.3 mmHg
[33]
  Activity: 9 mmHg
[34]
  Activity: 8.3 mmHg
[35]
  Activity: 1.3 mmHg
[36]
  Activity: 3.5 mmHg
[37]
  Activity: 1.1 mmHg
[38]
  Activity: 3.6 mmHg
[39]
  Activity: 0.8 mmHg
[40]
  Activity: 0.9 mmHg

## OCCc1ccc(O)c(O)c1 [HYDROXYTYROSOL]
Rattus norvegicus [41]
  Activity: 34%
Rattus norvegicus [42]
  Activity: 9%
